In patent US20090062273A1, “3-H-pyrazolopyridines and salts thereof, pharmaceutical compositions comprising same, methods of preparing same and uses of same” (priority 2006, published 2009):

What was measured:
[1] = target: T1, human insuline receptor (Ins-R) (Homo sapiens, UniProt P06213); experiment: InsR HTRF assay (selectivity vs. Tie2 assay 2); type: biochemical; conditions: IC50 assay 4/IC50 assay 2
T1 construct: GST-tagged recombinant kinase domain of the human insuline receptor; GST; purchased ProQinase, Freiburg, Germany; host or cells: SF-9 cells
T1 sequence (P06213 1023-1298 limits assumed): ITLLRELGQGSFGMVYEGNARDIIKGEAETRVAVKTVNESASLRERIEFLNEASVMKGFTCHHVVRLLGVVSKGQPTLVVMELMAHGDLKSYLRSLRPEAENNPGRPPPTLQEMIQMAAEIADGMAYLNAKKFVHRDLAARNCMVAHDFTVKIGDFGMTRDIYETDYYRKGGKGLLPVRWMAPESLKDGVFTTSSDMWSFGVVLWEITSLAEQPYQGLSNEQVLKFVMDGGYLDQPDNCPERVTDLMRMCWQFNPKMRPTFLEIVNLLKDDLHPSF
Method: Inhibitory activity of compounds against the kinase activity of the insulin receptor was quantified employing the Ins-R HTRF assay as described in the following paragraphs.
GST-tagged recombinant kinase domain of the human insuline receptor (Ins-R, purchase from ProQinase, Freiburg, Germany) expressed in SF-9 cells was used as kinase. As substrate for the kinase reaction biotinylated poly-(Glu,Tyr) (Cis biointernational, France) was used.
Ins-R was incubated for 20 min at 22° C. in the presence of different concentrations of test compounds in 5 μl assay buffer [50 mM Hepes/NaOH pH 7, 15 mM MnCl2, 1 mM dithiothreitol, 0.1 μM sodium ortho-vanadate, 0.015% (v/v) PEG20000, 10 μM adenosine-tri-phosphate (ATP), 0.3 μg/ml substrate, 1% (v/v) dimethylsulfoxide]. The concentration of Ins-R was adjusted depending of the activity of the enzyme lot and was chosen appropriate to have the assay in the linear range, typical concentrations were in the range of 10 pg/μL. The reaction was stopped by the addition of 5 μl of a solution of HTRF detection reagents (0.1 μM streptavidine-XLent and 1 nM PT66-Eu-Chelate, an europium-chelate labelled anti-phospho-tyrosine antibody from Perkin Elmer) in an aqueous EDTA-solution (80 mM EDTA, 0.2% (w/v) bovine serum albumin in 50 mM HEPES/NaOH pH 7.0).
The resulting mixture was incubated 1 h at 22° C. to allow the binding of the biotinylated phosphorylated peptide to the streptavidine-XLent and the PT66-Eu-Chelate. Subsequently the amount of phosphorylated substrate was evaluated by measurement of the resonance energy transfer from the PT66-Eu-Chelate to the streptavidine-XLent. Therefore, the fluorescence emissions at 620 nm and 665 nm after excitation at 350 nm was measured in a HTRF reader, e.g. a Rubystar (BMG Labtechnologies, Offenburg, Germany) or a ViewLux (Perkin-Elmer). The ratio of the emissions at 665 nm and at […] was taken as the measure for the amount of phosphorylated substrate. The data were normalised (enzyme reaction without inhibitor=0% inhibition, all other assay components but no enzyme=100% inhibition) and IC50 values were calculated by a 4 parameter fit using an inhouse software.

[2] = target: Tie2 (Homo sapiens, UniProt Q02763); experiment: Tie2 ELISA assay (cellular Tie2 autophosphorylation); type: cell-based; set-up: expressed in transfected cells; host or cells: CHO (CHO Tie2/DHFR); conditions: CHO cells stably transfected with Tie2, stimulated by angiopoietin-2; Tie2 autophosphorylation by sandwich-ELISA; read-out: Tie 2 activity (assay 1)
Chain of Tie2 (Q02763 23-1124, species assumed): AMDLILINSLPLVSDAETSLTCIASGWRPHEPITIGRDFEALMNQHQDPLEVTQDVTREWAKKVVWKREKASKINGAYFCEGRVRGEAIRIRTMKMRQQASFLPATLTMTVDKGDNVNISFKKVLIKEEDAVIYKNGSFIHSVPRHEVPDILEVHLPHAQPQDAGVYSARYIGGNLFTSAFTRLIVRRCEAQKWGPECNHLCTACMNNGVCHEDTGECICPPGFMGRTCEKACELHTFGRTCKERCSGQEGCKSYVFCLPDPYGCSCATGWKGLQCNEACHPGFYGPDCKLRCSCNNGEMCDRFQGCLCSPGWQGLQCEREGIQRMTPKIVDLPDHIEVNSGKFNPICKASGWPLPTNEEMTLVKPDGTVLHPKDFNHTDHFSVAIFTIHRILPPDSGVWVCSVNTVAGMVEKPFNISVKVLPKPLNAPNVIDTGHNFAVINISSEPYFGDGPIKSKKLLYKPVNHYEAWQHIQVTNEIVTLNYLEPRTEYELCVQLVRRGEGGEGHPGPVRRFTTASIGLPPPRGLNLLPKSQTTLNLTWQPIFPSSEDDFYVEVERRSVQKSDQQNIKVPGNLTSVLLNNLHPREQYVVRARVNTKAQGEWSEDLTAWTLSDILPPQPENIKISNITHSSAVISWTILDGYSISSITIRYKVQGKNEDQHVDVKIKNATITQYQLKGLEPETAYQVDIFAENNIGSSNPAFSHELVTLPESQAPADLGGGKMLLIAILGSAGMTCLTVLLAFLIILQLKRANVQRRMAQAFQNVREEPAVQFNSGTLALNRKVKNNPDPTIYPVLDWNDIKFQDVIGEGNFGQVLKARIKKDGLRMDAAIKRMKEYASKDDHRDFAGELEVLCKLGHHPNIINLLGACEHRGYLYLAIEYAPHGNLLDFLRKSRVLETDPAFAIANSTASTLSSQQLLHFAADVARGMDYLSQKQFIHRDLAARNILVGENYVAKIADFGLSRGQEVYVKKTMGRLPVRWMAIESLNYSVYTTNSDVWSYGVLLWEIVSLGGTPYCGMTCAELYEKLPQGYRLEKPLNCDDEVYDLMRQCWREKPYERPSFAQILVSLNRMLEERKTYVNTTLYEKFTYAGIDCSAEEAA

SMILES | Selectivity vs. InsR [1] | IC50 [2]
Cn1ncc2c(-c3ccc(NC(=O)Nc4cc(C(C)(C)C)on4)cc3)cncc21 [Example 13.2, 1-(5-tert-Butyl-isoxazol-3-yl)-3-[4-(1-methyl-1H-pyrazolo[3,4-c]pyridin-4-yl)-phenyl]-urea] | >50fold | < 501 nM
CN1CCN(Cc2ccc(NC(=O)Nc3ccc(-c4cncc5c4cnn5C)cc3)cc2C(F)(F)F)CC1 [Example 6.4, 1-[4-(4-Methyl-piperazin-1-ylmethyl)-3-trifluoromethyl-phenyl]-3-[4-(1-methyl-1H-pyrazolo[3,4-c]pyridin-4-yl)-phenyl]-urea] | >50fold | < 501 nM
CCn1ncc2c(-c3ccc(NC(=O)Nc4cc(C(F)(F)F)ccc4F)cc3)cncc21 [Example 10.5, 1-[4-(1-Ethyl-1H-pyrazolo[3,4-c]pyridin-4-yl)-phenyl]3-(2-fluoro-5-trifluoromethyl-phenyl)-urea] | >50fold | < 501 nM
O=C(Nc1cccc(C(F)(F)F)c1)Nc1ccc(-c2cncc3c2cnn3CCO)cc1F [Example 8.5, 1-{2-Fluoro-4-[1-(2-hydroxy-ethyl)-1H-pyrazolo[3,4-c]pyridin-4-yl]-phenyl}-3-(3-trifluoromethyl-phenyl)-urea] | >50fold | < 501 nM
Cn1ncc2c(-c3ccc(NC(=O)Nc4cc(C(F)(F)F)ccc4F)c(F)c3)cncc21 [Example 6.3, 1-[2-Fluoro-4-(1-methyl-1H-pyrazolo[3,4-c]pyridin-4-yl)-phenyl]-3-(2-fluoro-5-trifluoromethyl-phenyl)-urea] | >50fold | < 501 nM
Cn1nc(C(C)(C)C)cc1NC(=O)Nc1ccc(-c2cncc3c2cnn3C)cc1 [Example 14.3, 1-(5-tert-Butyl-2-methyl-2H-pyrazol-3-yl)-3-[4-(1-methyl-1H-pyrazolo[3,4-c]pyridin-4-yl)-phenyl]-urea] | >50fold | < 501 nM
Cn1ncc2c(-c3ccc(NC(=O)Nc4cc(C(C)(C)C)nn4-c4ccc(F)cc4)cc3)cncc21 [Example 15.7, 1-[5-tert-Butyl-2-(4-fluoro-phenyl)-2H-pyrazol-3-yl]-3-[4-(1-methyl-1H-pyrazolo[3,4-c]pyridin-4-yl)-phenyl]-urea] | >50fold | < 501 nM
COCCn1ncc2c(-c3ccc(NC(=O)Nc4cccc(C(F)(F)F)c4)cc3)cncc21 [Example 12.1, 1-{4-[1-(2-Methoxy-ethyl)-1H-pyrazolo[3,4-c]pyridin-4-yl]-phenyl}-3-(3-trifluoromethyl-phenyl)-urea] | >50fold | < 501 nM
